These results are taken from patent US20060014722A1, “Per (3,6-anhydro) cyclodextrin derivatives, their preparation and use thereof for separating ions, in particular chromium and manganese anions” (priority 2002, published 2006).

The nature of data set [1]: Ion-exchange plate chromatography (retardation factor Rf), complexing of chromium anions. The format is binding. The settings on record: Polygram Ionex 25-SA-Na plates charged with the ion, developed four times in water. From the text: (§1) The use of thin layer chromatography plates charged with ions allows rapid evaluation of the complexing of these ions by the species to be evaluated; in the present case, plates of the Polygram Ionex 25-SA-Na type (Macherey-Nagel, ref.: 80613) charged with various counterions to be evaluated.
(§2) Thus, chromatography plates are used onto which are respectively bound the ions acetyl COO^− (designated Ac in FIG. 1), PO4^3−, NO3^−, Cr2O7^2−, Cl^−, SO4^2^−, HCO3^−, BO3^−, WO4^2−, MnO4^−, CrO4^2−, AsO4^2−, AlO2^−.
(§3) In each test, there is introduced onto the plate the compound of Example 1 which will be retained on the plate if it complexes the ions. […] The lower the Rf, for a given ion, the more the ion in question will form a complex with the cyclodextrin compound.

Data set [2] is described as follows: Ion-exchange plate chromatography (retardation factor Rf), complexing of manganese anions. The format is binding. To be noted: Polygram Ionex 25-SA-Na plates charged with the ion, developed four times in water.
Excerpt: as §1, §2, §3

Data set [3] can be described thus: Ion-exchange plate chromatography, complexing of cations. The format is binding. To be noted: 18 cations tested on ion-exchange plates.
Excerpt: as §1, §3
Likewise, tests were carried out to see whether the derivatives according to the invention were capable of complexing cations. Tests were carried out with the following ions:
Na^+, K^+, Cs^+,NH4^+,Ca^2+,Ba^2+, Al^3+, Fe^3+, Co^2+, Ni^2+, Cu^2+, Ag^2+, Zn^2+, Hg^2+, Pb^2+, La^3+, Gd^3+, UO2^2+.

Data set [4] is described as follows: Solubility in water. The class given is physicochemical.

In the case of “per(3,6-anhydro)cyclomaltohexaose per-2-O-ethylcarbamate [Example 1]”, the “complexing rate for chromium ions (Rf, FIG. 1)” value in data set [1] is on record as “high complexing rate”. The “complexing rate for manganese ions (Rf, FIG. 1)” value in data set [2] is “high complexing rate”. For the same substance, the “complexing of cations (Rf, FIG. 2)” value in data set [3] is on record as “none of these cations efficiently forms a complex”. The solubility in water result in data set [4] is recorded as “low solubility in water”.
